From US20080003305A1, “PROCESS AND COMPOSITIONS FOR THE DISINFECTION OF WATERS” (BROMINE COMPOUNDS LIMITED, priority 1991, published 2008)

How the values were obtained:
[1] = test system: biofouling and growth of algae; assay: Field experiment, cooling tower 1
Experimental: • Cooling tower; contained volume 1000 m^3 • Circulation rate 500 m^3/h • Scale and corrosion inhibitor: CWC: 100 mg/l
The tower was controlled on low level (0.6-1.2 kg/day) of BCDMH feed. Use of BCDMH was effective as long as make-ups were softened in ion-exchangers.
The system was shock-fed with NH4Br+NaOCl. Overall dosage: 75 liters NaOCl (10%) 12.6 kg NH4Br. The mixture was fed during 1.5 hours.
A slug dose of 25 liters NaOCl (10% as Cl2) (+4.2 kg NH4Br) was then fed to the cooling tower once in two to three days. […] A measurable residue of 0.6-0.4 ppm (as total chlorine) was measured in the water 24 and 48 hours after feeding the mixture.

[2] = test system: biofilm, slime and algae growth; assay: Field experiment, cooling tower 2 (corn processing plant); conditions: BCDMH 1.50-2.26 kg/day daily
Experimental: • Corn processing plant. • Contained volume: 20 m^3 • Circulation rate: 300 m^3/h • pH: 7.5-8.0 • Water temperature: 36° C.-57° C.
This tower was treated with BCDMH (1.50-2.26 kg/day) daily. Due to a very high organic load in the water, growth of biofilm was very fast.

Pseudomonas sp. = assay: Efficacy of biocides in the presence of anti-scale and corrosion inhibiting treatment (CWC); format: cell-based; conditions: dose 4 mg/l; pH 9.0; contact time 6 hours
Text: Efficacy of Biocides in the Presence of Anti-Scale and Corrosion Inhibiting Treatment (CWC)
Stock concentration: 0.5% as Cl2
Efficacy against pseudomonas sp.

[3] = test system: total aerobic viable counts; assay: Efficacy of oxidizing biocides in water taken from a paper mill (thick stock of pulp slurry); format: cell-based; conditions: 15 mg/l as Cl2; 30 minutes
Experimental: Efficacy of Oxidizing Biocides in Water Taken from a Paper Mill (Thick Stock of Pulp Slurry)
Microorganisms were incubated at 37° C. (total aerobic viable counts).
Concentration of stock solution: 0.1% as Cl2.

aerob. MOs = assay: Efficacy in domestic waste containing a high concentration of amines: aerobic MOs; format: cell-based; conditions: 60 ppm; contact time 10 minutes; N as NH3 50mg/l; pH 6.10
Experimental: (§1) Efficacy of a Series of Biocides in Domestic Waste Containing a High Concentration of Amines
(§2) Incubation temperature: 27° C.
(§3) Stock concentration: 0.2%

[4] = Residue as Cl2 in domestic waste containing a high concentration of amines; format: physicochemical; conditions: 60 ppm
Experimental: as §1, §2, §3

fungi = assay: Efficacy in domestic waste containing a high concentration of amines: fungi; format: cell-based; conditions: 60 ppm; contact time 10 minutes; N as NH3 50mg/l; pH 6.10
Experimental: as §1, §2, §3

[5] = test system: MOs in starch sizing mixture; assay: Efficacy of oxidizing and non-oxidizing biocides in a starch sizing mixture (paper industry); format: cell-based; conditions: 30 ppm active ingredient, 60° C.
Experimental: Efficacy of Oxidizing and Non-Oxidizing Biocides is a Starch Sizing Mixture (Paper Industry)
Efficacy was measured at 60° C.
NH4Br+NaOCl: stock concentration 0.1%.
Dosage: 30 ppm active ingredient.
Incubation temperature 60° C.

anaer. MOs = assay: Efficacy in domestic waste containing a high concentration of amines: anaerobic MOs; format: cell-based; conditions: 60 ppm; contact time 10 minutes; N as NH3 50mg/l; pH 6.10
Experimental: as §1, §2, §3

SMILES	prevention of biofouling and growth of algae ([1]; BCDMH 4-6 kg/day, CWC (100 mg/l of phosphonate))	control of the tower ([1]; BCDMH feed 0.6-1.2 kg/day, make-ups softened in ion-exchangers)	control of daily grown films [2]	efficacy against heavy slimes covering the cooling tower [2]	Survivors in CWC (100 mg/l) (Pseudomonas sp.)	Survivors in buffer (Pseudomonas sp.)	Viable counts after time (minutes): 30 [3]	Surviving MOs after 10 minutes aerob. (aerob. MOs)	Residue free as Cl2 after 10 minutes ([4]; free)	Residue (total) as Cl2 after 10 minutes ([4]; total)	Surviving MOs after 10 minutes fungi (fungi) [cfu/ml]	Surviving MOs after time (hours): 4 ([5]; 4 hours)	Surviving MOs after time (hours): 28 ([5]; 28 hours)	Surviving MOs after time (hours): 48 ([5]; 48 hours)	Surviving MOs after time (hours): 72 ([5]; 72 hours)	Surviving MOs after 10 minutes anaer. (anaer. MOs)
CC1(C)C(=O)N(Cl)C(=O)N1Br [BCDMH]	did not suffice to prevent biofouling and growth of algae	effective	effective in controlling the daily grown films	not effective against heavy slimes	3 × 10^5	0										
N#CC(Br)(Br)C(N)=O [DBNPA]					4 × 10^6	0	2 × 10^3 cfu/ml	2 × 10^6 cfu/ml	0 (0)	0 (0)	0	3 × 10^4 cfu/ml	2 × 10^5 cfu/ml	2 × 10^5 cfu/ml	1 × 10^5 cfu/ml	5 × 10^5 cfu/ml
